Patent US20060205740A1, “Chemical compounds” (priority 2003, published 2006)

Experiments:
ErbB2 = target: T1, ErbB2 (Homo sapiens, UniProt P04626); assay: ErbB2 substrate phosphorylation enzyme assay (HTRF); assay type: biochemical; conditions: isolated enzyme, 20 μM ATP
T1 construct: made in house; host or cells: baculovirus expression system
Protocol: Compounds of the present invention were tested for EGFR, ErbB-2, and ErbB4 protein tyrosine kinase Inhibitory activity in substrate phosphorylation assays using enzymes purified from a baculovirus expression system. Reagent production was conducted essentially as described (Brignola, P. S., et al, (2002) J. Biol. Chem. v. 277 2, 1576-1585).
(§1) The method measures the ability of the isolated enzyme to catalyse the transfer of the γ-phosphate from ATP onto the tyrosine residue of a biotinylated synthetic peptide (biotin-Ahx-[…]-amide). The extent of tyrosine phosphorylation was measured using an anti-phosphotyrosine antibody, and quantified by homogenous time-resolved fluorescence (HTRF).
(§2) The enzymes were first diluted from their concentrated stock solutions into buffer containing 100 mM MOPS (pH7.5); 0.01% Tween-20; 0.1 mg/mL bovine serum albumin (BSA); and 80 nM EGFR, 100 nM ErbB2, or 100 nM ErbB4. The enzymes were incubated in this buffer for 30 minutes at room temperature before addition to the assay plates. Reactions were performed in black 384-well polystyrene flat-bottom plates in a final volume of 20 μL. Reaction mixtures contained 100 mM MOPS (pH 7.5), 2 mM MnCl2, 20 μM ATP, 0.01% Tween-20, 0.1 mg/mL (BSA), 0.8 μM peptide substrate, and 1 mM dithiothreitol. Reactions were initiated by adding enzyme. 0.4 nM EGRF, 5 nM ErbB2, and 0.5 nM ErbB4 were the final enzyme concentrations.
Reactions were allowed to proceed for 90 minutes and were then terminated by the addition of 20 μL 100 mM EDTA to each well. 40 μL/well of HTRF mix were then added to the assay plates for the detection of phosphorylated substrate. Final assay concentrations were: 100 mM HEPES (pH7.5), 0.1 mg/mL BSA, 15 nM streptavidin-labeled allophycocyanin (PerkinElmer), and 1 nM europium-labeled anti-phosphotyrosine antibody (PerkinElmer). Assay plates were left unsealed and were counted in a Wallac Multilabel Counter 1420 (PerkinElmer).
Compounds under analysis were dissolved in Me2SO to 1.0 mM and serially diluted 1 to 3 with Me2SO through twelve dilutions. 1 μL of each concentration was transferred to the corresponding well of an assay plate. This creates a final compound concentration range from 0.00027 to 47.6 μM.
The data for dose responses were plotted as % Inhibition calculated with the data reduction formula 100*(1−(U1−C2)/(C1−C2)) versus concentration of compound where U is the unknown value, C1 is the average control value obtained for 4.76% DMSO, and C2 is the average control value obtained for 0.035 M EDTA. Data were fitted with a curve described by: y=((Vmax*x)/(K+x))+Y2 where Vmax is the upper asymptote, Y2 is the Y intercept, and K is the IC50. The results for reach compound were recorded as pIC50s, calculated as follows: pIC50=−Log10(K)

EGFR = target: T2, EGFR (Homo sapiens, UniProt P00533); assay: EGFR substrate phosphorylation enzyme assay (HTRF); assay type: biochemical; conditions: isolated enzyme, 20 μM ATP
T2 construct: made in house; host or cells: baculovirus expression system
T2 sequence (P00533 669-1210 limits assumed): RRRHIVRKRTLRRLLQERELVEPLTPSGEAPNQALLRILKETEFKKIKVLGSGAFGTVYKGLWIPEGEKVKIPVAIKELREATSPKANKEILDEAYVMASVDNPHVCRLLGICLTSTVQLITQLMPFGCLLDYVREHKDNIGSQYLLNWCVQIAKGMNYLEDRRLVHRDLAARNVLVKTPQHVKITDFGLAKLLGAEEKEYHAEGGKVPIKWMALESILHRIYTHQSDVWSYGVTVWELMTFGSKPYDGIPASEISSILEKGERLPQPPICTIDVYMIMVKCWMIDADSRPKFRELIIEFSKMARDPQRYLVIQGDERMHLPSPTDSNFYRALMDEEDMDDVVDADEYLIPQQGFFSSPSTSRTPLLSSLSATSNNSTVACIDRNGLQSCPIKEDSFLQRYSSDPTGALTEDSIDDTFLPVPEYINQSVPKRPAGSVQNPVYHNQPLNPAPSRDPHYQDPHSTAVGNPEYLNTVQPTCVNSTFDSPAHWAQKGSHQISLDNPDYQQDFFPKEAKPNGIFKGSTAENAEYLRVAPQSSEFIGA
Protocol: Compounds of the present invention were tested for EGFR, ErbB-2, and ErbB4 protein tyrosine kinase Inhibitory activity in substrate phosphorylation assays using enzymes purified from a baculovirus expression system.
as §1, §2
Reactions were allowed to proceed for 90 minutes and were then terminated by the addition of 20 μL 100 mM EDTA to each well. 40 μL/well of HTRF mix were then added to the assay plates for the detection of phosphorylated substrate.
Compounds under analysis were dissolved in Me2SO to 1.0 mM and serially diluted 1 to 3 with Me2SO through twelve dilutions. 1 μL of each concentration was transferred to the corresponding well of an assay plate.
Data were fitted with a curve described by: y=((Vmax*x)/(K+x))+Y2 where Vmax is the upper asymptote, Y2 is the Y intercept, and K is the IC50.

T1 sequence (P04626 676-1255 limits assumed): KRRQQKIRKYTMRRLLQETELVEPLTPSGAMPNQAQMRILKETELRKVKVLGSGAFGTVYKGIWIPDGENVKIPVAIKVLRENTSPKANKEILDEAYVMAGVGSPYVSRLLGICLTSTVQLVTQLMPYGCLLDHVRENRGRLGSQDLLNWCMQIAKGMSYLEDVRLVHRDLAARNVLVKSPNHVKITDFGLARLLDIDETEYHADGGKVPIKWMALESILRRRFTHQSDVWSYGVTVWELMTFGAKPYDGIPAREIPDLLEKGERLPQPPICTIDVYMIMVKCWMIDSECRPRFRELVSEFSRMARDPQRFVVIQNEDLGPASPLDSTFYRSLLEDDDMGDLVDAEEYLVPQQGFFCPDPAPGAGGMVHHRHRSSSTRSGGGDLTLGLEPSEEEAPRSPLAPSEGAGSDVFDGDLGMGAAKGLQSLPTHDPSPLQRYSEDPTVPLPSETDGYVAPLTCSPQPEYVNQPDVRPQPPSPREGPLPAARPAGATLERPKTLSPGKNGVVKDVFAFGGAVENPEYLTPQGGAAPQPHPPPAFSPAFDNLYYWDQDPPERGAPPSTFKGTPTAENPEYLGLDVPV

| Structure (SMILES) | IC50 (ErbB2) [nM] | IC50 (EGFR) [nM] |
| --- | --- | --- |
| COC(=O)CCC(=O)Nc1cccc(C#Cc2cncnc2Nc2ccc(OCc3cccc(F)c3)c(Cl)c2)n1 [Example 71, Methyl 4-({6-[(4-{3-chloro-4-[(3-fluorobenzyl)oxy]anilino}-5-pyrimidinyl)ethynyl]-2-pyridinyl}amino)-4-oxobutanoate] | 100 to 1000 | 100 to 1000 |
| CS(=O)(=O)CCNc1cccc(C#Cc2cncnc2Nc2ccc(OCc3cccc(F)c3)c(Cl)c2)n1 [Example 72, N-{3-Chloro-4-[(3-fluorobenzyl)oxy]phenyl}-5-[(6-{[2-(methylsulfonyl)ethyl]amino}-2-pyridinyl)ethynyl]-4-pyrimidinamine] | > 1000 | > 1000 |
| C(=C\c1cncnc1Nc1ccc2sc(Cc3ccccc3)nc2c1)/c1ccsc1 [Example 5, 2-Benzyl-N-{5-[(E)-2-thien-3-ylethenyl]pyrimidin-4-yl}-1,3-benzothiazol-5-amine] | > 1000 | > 1000 |
| Fc1cccc(COc2ccc(Nc3ncncc3C#Cc3cccc(CNCCN4CCOCC4)n3)cc2Cl)c1 [Example 76, N-{3-Chloro-4-[(3-fluorobenzyl)oxy]phenyl}-5-{[6-({[2-(4-morpholinyl)ethyl]amino}methyl)-2-pyridinyl]ethynyl}-4-pyrimidinamine] | 100 to 1000 | 100 to 1000 |
| Fc1cccc(COc2ccc(Nc3ncncc3C#Cc3cccc(CNCCCn4ccnc4)n3)cc2Cl)c1 [Example 78, N-{3-Chloro-4-[(3-fluorobenzyl)oxy]phenyl}-5-{[6-({[3-(1H-imidazol-1-yl)propyl]amino}methyl)-2-pyridinyl]ethynyl}-4-pyrimidinamine] | < 100 | < 100 |
| C(=C\c1cncnc1Nc1ccc2c(cnn2Cc2ccccc2)c1)/c1cn[nH]c1 [Example 9, 1-Benzyl-N-{5-[(E)-2-(1H-pyrazol-4-yl)ethenyl]pyrimidin-4-yl}-1H-indazol-5-amine] | 100 to 1000 | 100 to 1000 |
| COCc1cccc(C#Cc2cncnc2Nc2ccc(OCc3cccc(F)c3)c(Cl)c2)n1 [Example 80, N-{3-Chloro-4-[(3-fluorobenzyl)oxy]phenyl}-5-{[6-(methoxymethyl)-2-pyridinyl]ethynyl}-4-pyrimidinamine] | > 1000 | > 1000 |
| COc1ccc(/C=C/c2cncnc2Nc2ccc(OCc3cccc(F)c3)c(Cl)c2)cc1OC [Example 21, N-{3-Chloro-4-[(3-fluorobenzyl)oxy]phenyl}-5-[(E)-2-(3,4-dimethoxyphenyl)ethenyl]pyrimidin-4-amine] | < 100 | < 100 |
| N=C(N)Nc1cccc(C#Cc2cncnc2Nc2ccc(OCc3cccc(F)c3)c(Cl)c2)c1 [Example 49, N-(3-{[4-({3-Chloro-4-[(3-fluorobenzyl)oxy]phenyl}amino)pyrimidin-5-yl]ethynyl}phenyl)guanidine] | < 100 | 100 to 1000 |
| Nc1cccc(C#Cc2cncnc2Nc2ccc(OCc3cccc(F)c3)c(Cl)c2)n1 [Example 67, 5-[(6-Amino-2-pyridinyl)ethynyl]-N-(3-chloro-4-{[(3-fluorophenyl)methyl]oxy}phenyl)4-pyrimidinamine] | < 100 | < 100 |
| CS(=O)(=O)CCNC(=O)NCc1cccc(C#Cc2cncnc2Nc2ccc(OCc3cccc(F)c3)c(Cl)c2)n1 [Example 88, N-({6-[(4-{3-Chloro-4-[(3-fluorobenzyl)oxy]anilino}-5-pyrimidinyl)ethynyl]-2-pyridinyl}methyl)-N′-[2-(methylsulfonyl)ethyl]urea] | < 100 | < 100 |
| Nc1nccc(C#Cc2cncnc2Nc2ccc(OCc3cccc(F)c3)c(Cl)c2)n1 [Example 99, 4-{[4-({3-Chloro-4-[(3-fluorobenzyl)oxy]phenyl}amino)pyrimidin-5-yl]ethynyl}pyrimidin-2-amine] | < 100 | – |

Further lines, results first:

| IC50 (ErbB2) [nM] | IC50 (EGFR) [nM] | Structure (SMILES) |
| --- | --- | --- |
| < 100 | < 100 | CC(=O)Nc1cccc(/C=C/c2cncnc2Nc2ccc(OCc3cccc(F)c3)c(Cl)c2)c1 [Example 20, N-(3-{(E)-2-[4-({3-Chloro-4-[(3-fluorobenzyl)oxy]phenyl}amino)pyrimidin-5-yl]ethenyl}phenyl)acetamide] |
| < 100 | < 100 | O=C(NCCN1CCOCC1)NCc1cccc(C#Cc2cncnc2Nc2ccc(OCc3cccc(F)c3)c(Cl)c2)n1 [Example 89, N-({6-[(4-{3-Chloro-4-[(3-fluorobenzyl)oxy]anilino}-5-pyrimidinyl)ethynyl]-2-pyridinyl}methyl)-N′-[2-(4-morpholinyl)ethyl]urea] |
| < 100 | < 100 | CN(C)CCCC(=O)Nc1cccc(C#Cc2cncnc2Nc2ccc(OCc3cccc(F)c3)c(Cl)c2)n1 [Example 70, N-{6-[(4-{3-Chloro-4-[(3-fluorobenzyl)oxy]anilino}-5-pyrimidinyl)ethynyl]-2-pyridinyl}-4-(dimethylamino)butanamide] |
| < 100 | < 100 | Fc1cccc(COc2ccc(Nc3ncncc3/C=C/c3ccccc3)cc2Cl)c1 [Example 22, N-{3-Chloro-4-[(3-fluorobenzyl)oxy]phenyl}-5-[(E)-2-phenylethenyl]pyrimidin-4-amine] |
| < 100 | < 100 | Fc1cccc(COc2ccc(Nc3ncncc3/C=C/c3ccncc3)cc2Cl)c1 [Example 14, N-{3-Chloro-4-[(3-fluorobenzyl)oxy]phenyl}-5-[(E)-2-pyridin-4-ylethenyl]pyrimidin-4-amine] |
| < 100 | < 100 | O=C(Nc1cccc(C#Cc2cncnc2Nc2ccc(OCc3cccc(F)c3)c(Cl)c2)n1)C(F)(F)F [Example 100, N-(6-{[4-({3-Chloro-4-[(3-fluorobenzyl)oxy]phenyl}amino)pyrimidin-5-yl]ethynyl}pyridin-2-yl)-2,2,2-trifluoroacetamide] |
| < 100 | < 100 | Fc1cccc(COc2ccc(Nc3ncncc3/C=C/c3ccsc3)cc2Cl)c1 [Example 17, N-{3-Chloro-4-[(3-fluorobenzyl)oxy]phenyl}-5-[(E)-2-thien-3-yletheny]pyrimidin-4-amine] |
| < 100 | < 100 | Fc1cccc(COc2ccc(Nc3ncncc3C#Cc3cccc(CN4CCCCC4)n3)cc2Cl)c1 [Example 92, N-{3-Chloro-4-[(3-fluorobenzyl)oxy]phenyl}-5-([6-(1-piperidinylmethyl)-2-pyridinyl]ethynyl}-4-pyrimidinamine] |
